Laboratory results: patent US5385894A, “Disubstituted 6-aminoquinazolinones” (Merck & Co., Inc., priority 1994, dated 1995)

Test system: male Sprague-Dawley rats
Assay: not given
Conditions: rat; cited from earlier work

**Q.** For CN1C(=O)CN=C(c2ccccc2)c2cc(Cl)ccc21 [Diazepam], which “activity in CER assay” value is on record?
**A.** active

Test system: rats pretreated with scopolamine
Assay: not given
Conditions: cited from earlier work

**Q.** For CNC(=O)Oc1ccc2c(c1)[C@]1(C)CCN(C)[C@@H]1N2C [physostigmine], which “activity in rat passive avoidance assay” value is on record?
**A.** active

Test system: not listed separately
Assay: log P (Table 1)
Assay type: physicochemical
Conditions: not given

**Q.** For CCCOC(=O)N(Cc1cccnc1)c1ccc2nc(CCC)n(Cc3ccc(-c4ccccc4-c4nn[nH]n4)cc3)c(=O)c2c1 [Example 158], which logP is on record?
**A.** 3.8

**Q.** With CCCOC(=O)N(Cc1ccccn1)c1ccc2nc(CCC)n(Cc3ccc(-c4ccccc4-c4nn[nH]n4)cc3)c(=O)c2c1 [Example 159] as the molecule, how does the logP read?
**A.** 3.9

**Q.** For CCCc1nc2ccc(N(Cc3ccncc3)C(=O)OCCOC)cc2c(=O)n1Cc1ccc(-c2ccccc2-c2nn[nH]n2)cc1 [Example 160], which logP is on record?
**A.** 2.7

**Q.** Which logP does the source give for COCc1nc2ccc(N(C)C(=O)OCC(C)C)cc2c(=O)n1Cc1ccc(-c2ccccc2-c2nn[nH]n2)cc1 [Example 161] here?
**A.** 3.7

**Q.** With CCCOC(=O)N(Cc1ccccn1)c1ccc2nc(COC)n(Cc3ccc(-c4ccccc4-c4nn[nH]n4)cc3)c(=O)c2c1 [Example 162] as the molecule, how does the logP read?
**A.** 3.3

**Q.** Which logP does the source give for CCCc1nc2ccc(N(Cc3ccccn3)C(=O)OCC)cc2c(=O)n1Cc1ccc(-c2ccccc2-c2nn[nH]n2)cc1 [Example 164] here?
**A.** 3.5

**Q.** For CCCOC(=O)N(Cc1ccc(N)cc1)c1ccc2nc(CCC)n(Cc3ccc(-c4ccccc4-c4nn[nH]n4)cc3)c(=O)c2c1 [Example 166], which logP is on record?
**A.** 3.9

**Q.** Which logP does the source give for CCCc1nc2ccc(N(Cc3ccc(F)cc3)C(=O)N(C)C(C)C)cc2c(=O)n1Cc1ccc(-c2ccccc2-c2nn[nH]n2)cc1 [Example 174] here?
**A.** 4.8

**Q.** For CCCc1nc2ccc(N(Cc3ccccn3)C(=O)N(C)C(C)C)cc2c(=O)n1Cc1ccc(-c2ccccc2-c2nn[nH]n2)cc1 [Example 175], which logP is on record?
**A.** 3.7

**Q.** Which logP does the source give for CCCc1nc2ccc(N(Cc3ccccc3)C(=O)c3ccccc3Oc3ccccc3)cc2c(=O)n1Cc1ccc(-c2ccccc2-c2nn[nH]n2)cc1 [Example 178] here?
**A.** 4.2

**Q.** Which logP does the source give for CCCc1nc2ccc(N(Cc3ccc(O)cc3)C(=O)c3ccccc3)cc2c(=O)n1Cc1ccc(-c2ccccc2-c2nn[nH]n2)cc1 [Example 179] here?
**A.** 3.6

**Q.** With CCCc1nc2ccc(N(Cc3ccccc3)C(=O)c3ccc(C(=O)O)cc3)cc2c(=O)n1Cc1ccc(-c2ccccc2-c2nn[nH]n2)cc1 [Example 180] as the molecule, how does the logP read?
**A.** 2.9

**Q.** For CCCc1nc2ccc(N(Cc3cccnc3)C(=O)c3ccc(O)cc3)cc2c(=O)n1Cc1ccc(-c2ccccc2-c2nn[nH]n2)cc1 [Example 181], which logP is on record?
**A.** 2.8

**Q.** For CCCc1nc2ccc(N(Cc3ccc(C(=O)O)cc3)C(=O)c3ccccc3)cc2c(=O)n1Cc1ccc(-c2ccccc2-c2nn[nH]n2)cc1 [Example 182], which logP is on record?
**A.** 2.4

**Q.** With CCCc1nc2ccc(N(Cc3ccc(C(=O)OC)cc3)C(=O)c3ccccc3)cc2c(=O)n1Cc1ccc(-c2ccccc2-c2nn[nH]n2)cc1 [Example 183] as the molecule, how does the logP read?
**A.** 4.4
